# Assay results from PubChem BioAssay AID1996.
# Details: buffer; pH 7.4; 200.0 µM
row,solubility kinetic [µg/mL],Compound
1,> 47.5,c1csc(-c2nnc(COc3ncnc4sccc34)o2)c1
2,4,Cc1cc(C(=O)CN2C(=O)C(=O)N(Cc3ccccc3)C2=O)c(C)n1Cc1ccccc1
3,6.1,O=C(COc1ccc2ccccc2c1)Nc1ccncc1
4,> 28.7,NC(=O)c1ccccc1OC1CCC1
5,> 40.9,O=C(NCCCSc1ccccc1)c1cccnc1
6,3.7,CC(OC(=O)c1cccc([N+](=O)[O-])c1)C(=O)N1CCc2ccccc21 (centres undefined)
7,> 46.9,COc1ccccc1NC(=O)CCNC(=O)c1ccc(C)cc1
8,1.4,COc1ccc(/C=C2\N=C(SC)N(c3ccccc3OC)C2=O)cc1
9,> 37.7,COC(=O)C1=C2SCC(=O)N2C(N)=C(C#N)C1
10,51.9,COc1cccc(NC(=O)c2ccccc2-c2ccccc2C(=O)O)c1
11,< 0.6,O=C(Nc1ccc(F)cc1)c1cccc2ccccc12
12,35.4,CNC(=S)Nc1ccc(OC(F)(F)F)cc1
13,48.8,O=C(COC(=O)C1C2CC3OC(=O)C1C3C2)Nc1ccc(Cl)cc1 (centres undefined)
14,4.3,Cc1ccnc(NC(=O)Cc2ccc(-c3ccccc3)cc2)c1
15,2.2,Cc1cc(C(=O)Nc2ccc(Br)cn2)sc1C
16,44,O=C(OCN1C(=O)C(=O)c2ccccc21)c1ccc(Cl)cc1
17,> 46,CN1CCCC(OC(=O)/C(C#N)=C/c2ccccc2)C1.Cl (centres undefined)
18,> 38,Cc1nn(C)cc1S(=O)(=O)Nc1ncccn1
19,< 0.5,COc1ccc(-c2ccc3ccccc3n2)cc1
20,4.2,CC(=O)c1ccc(Nc2ccc([N+](=O)[O-])c3nonc23)cc1
21,0.7,CN(C)c1ccc(NC(=O)C(=O)NCCOc2ccccc2)cc1
22,> 48.3,O=C(COC(=O)c1cnccn1)c1ccc(Cl)c([N+](=O)[O-])c1
23,40.4,OCCNc1nc2ccccc2n1CC(O)c1ccccc1 (centres undefined)

row,solubility kinetic [µg/mL],Compound
1,45,CC(C)N(CC(N)=O)C(=O)c1sc2cc(F)ccc2c1Cl
2,> 42.2,O=C(CN1C(=O)NC2NC(=O)NC21)NC1CCCCC1 (centres undefined)
3,< 0.2,COC(=O)c1ccc(Nc2ccc3nonc3c2[N+](=O)[O-])cc1
4,23.9,CCOC(=O)C1=C(C)OC(N)=C(C#N)C1c1cc(SCC)oc1C (centres undefined)
5,> 49.6,O=C(CN1C(=O)c2ccccc2C1=O)OCC(=O)N1CCCCC1
6,9.5,Cc1ccc(C(=O)OC(C)C(=O)Nc2ccc3c(c2)OCO3)c(O)c1 (centres undefined)
7,< 0.3,CCC(=O)O/N=C(\N)c1ccc(Oc2cc(C)c(Cl)c(C)c2)c([N+](=O)[O-])c1
8,> 50.6,Nn1c(SCC(=O)NC2CCCCCC2)nnc1C(F)(F)F
9,1.6,CC(C)C(=O)N1CCN(c2ccccc2NC(=S)NC(=O)/C=C/c2ccco2)CC1
10,35.8,O=C(c1cc(COc2ccc(F)cc2F)on1)N1CCSCC1
11,< 0.3,COc1cc(OC)nc(Oc2cccc(C(F)(F)F)c2)n1
12,45.1,COc1ccc(OC(C)C(=O)NC2CCCCCCC2)cc1 (centres undefined)
13,47.5,COc1ccccc1N(C)S(=O)(=O)c1ccc(Cl)c(C(=O)NCc2ccco2)c1
14,20.3,Cc1cc(C(=O)N2CCN(c3ccc([N+](=O)[O-])cc3)CC2)c(C)o1
15,16.8,O=C(Oc1ccc(C(=S)N2CCOCC2)cc1)c1ccccc1[N+](=O)[O-]
16,1.1,COc1ccc(Cl)cc1NC(=O)C(C)N1CCc2ccccc21 (centres undefined)
17,< 0.4,COc1ccc2[nH]c(C(=O)Nc3ccc(F)cc3Br)cc2c1
18,12.6,CN(C)C(=O)COc1ccc2c(-c3ccccc3)cc(=O)oc2c1
19,< 0.6,COc1ccc(C(=O)Nc2ccc3ccccc3c2)cc1
20,> 55,CN(Cc1ccccc1)C(=O)COC(=O)CN1C(=O)c2ccccc2C1=O
21,> 50.1,Br.O=C(O)c1ccccc1CSC1=NCCS1
22,> 44.9,CC(=O)N(CCOc1ccccc1)CCOc1ccccc1
23,4.2,CN(C)c1cccc(C(=O)N(Cc2ccccc2)Cc2ccccc2)c1

row,solubility kinetic [µg/mL],Compound
1,30.6,C#CCNC(=O)c1cc2sccc2n1C
2,36.1,CCOC(=O)CC(=O)Nc1ccsc1C(N)=O
3,10.3,O=C1COc2ccccc2N1Cc1ccc(Cl)cc1
4,1.3,Cc1ccc2cc3cc(C(=O)NC4CC4)oc3nc2c1
5,2.1,Cc1occc1C(=O)Nc1ccc(OCc2ccccc2)cc1
6,34.3,O=C(Cc1cccs1)NCc1cc(Cl)cc(Cl)c1
7,< 0.7,COc1ccc2c(c1)c(C(C)=O)c(C)n2-c1ccc(C(C)=O)cc1
8,> 44.4,COc1cc2c(cc1OC)CC1(CCCCC1)N=C2.Cl
9,0.7,CSc1ncc(Cl)c(C(=O)Nc2ccc(C)c(C)c2)n1
10,> 60.2,CCN(C(=O)COC(=O)c1ccc(SC)cc1OC)C1CCS(=O)(=O)C1 (centres undefined)
11,> 52.1,Br.CC(C)CC(N)C(=O)OCc1ccc([N+](=O)[O-])cc1 (centres undefined)
12,9.7,O=C(NC12CC3CC(CC(C3)C1)C2)c1ccc(Br)o1
13,11.8,O=C(COC(=O)Cc1ccc(Br)cc1)NCc1cccs1
14,35.4,CC(NC(=O)C(=O)Nc1nccs1)c1ccccc1 (centres undefined)
15,26.2,COc1ccc(N2CCOCC2)c(NC(=O)c2ccc3c(c2)OCO3)c1
16,32.7,CC(=O)N1CCc2ccccc2C1CC(=O)O (centres undefined)
17,41.2,Cc1ccccc1OCc1ccc(C(=O)N2CCOCC2)o1
18,5.4,COc1ccc(N2C(=O)c3ccccc3C(C)(C)C2=O)cc1
19,4.5,O=C(CC1CC2CCC1C2)NC1CCCCCCC1 (centres undefined)
20,> 52.8,Cn1cnc(S(=O)(=O)Nc2cc(-c3ccc(Cl)cc3)nn2C)c1
21,26.8,O=C(CCCc1cccs1)Nc1nccs1
22,> 48.7,NC(=NCCc1c[nH]c2ccccc12)NC(=O)c1ccc(F)cc1
23,36.1,CC(C)CCC1(C)NC(=O)N(CC(=O)c2ccc[nH]2)C1=O (centres undefined)

row,solubility kinetic [µg/mL],Compound
1,> 40.5,N#Cc1ccccc1CSc1ncccc1C(=O)O
2,> 49.7,CC1CC(=O)Nc2ccccc2N1C(=O)Nc1ccc(F)cc1F (centres undefined)
3,2,O=C(CN1c2cccc3cccc(c23)S1(=O)=O)NCCc1ccccc1
4,16.1,Cc1ccc(C(=O)OCC(=O)NC(C)c2ccccc2)s1 (centres undefined)
5,8.3,COc1ccc(-c2cc(C(=O)NCc3ccco3)c3ccccc3n2)c(OC)c1
6,1,Cc1ccccc1-c1nc(-c2ccc(Br)o2)no1
7,48.5,CCc1nc2ccccc2c(C(=O)OCC(=O)NC2CCCC2)c1C
8,30.9,COc1ccc2nc(SCC(=O)C(C)(C)C)[nH]c2c1
9,46.2,N#C/C(=C\c1ccc(O)c([N+](=O)[O-])c1)C(=O)NCc1ccccc1
10,48.3,CCC(=O)Nc1ccc(C(=O)CSc2nc(N)cc(N)n2)cc1
11,8.6,O=C(CN1CCN(C(=O)c2ccc(OCc3cn4ccccc4n3)cc2)CC1)Nc1cccc(F)c1
12,> 41.1,Cl.NC(CCC(=O)O)C12CC3CC(CC(C3)C1)C2 (centres undefined)
13,48,O=C(Nc1ccccc1)c1ccccc1OS(=O)(=O)c1ccccc1
14,1,Cc1cc(=O)oc2cc(NC(=O)c3ccc(OC(F)F)cc3)ccc12
15,34.9,COc1ncnc2c1ncn2CC1COC(C)(C)O1 (centres undefined)
16,7.1,CC(C)c1ccc(C(=O)CN2C(=O)NC3(CCc4ccccc43)C2=O)cc1 (centres undefined)
17,> 46.9,COc1cccc(NC(=O)C2CCCN(S(C)(=O)=O)C2)c1 (centres undefined)
18,> 44.4,Cl.Nc1ccc(-c2nc3c(ccc4ccccc43)[nH]2)cc1
19,35.8,CN(C)/C=N/S(=O)(=O)c1ccc(Cl)cc1
20,> 45.2,O=C(NCCc1ccccc1F)c1ccc2c(c1)OCCO2
21,10.9,Cc1ccc(C)c(C(=O)CCC(=O)NCc2ccc(Cl)cc2)c1
22,> 45.2,CC(=O)c1ccc(NC(=O)C2C3CCC(C3)C2C(=O)O)cc1 (centres undefined)
23,53.2,CC1(C)Cc2cccc(C(=O)NC3CCN(Cc4ccccc4)CC3)c2O1

row,solubility kinetic [µg/mL],Compound
1,29.8,Clc1ccc(C(CCN2CCCC2)Cc2ccccc2)cc1 (centres undefined)
2,17.7,Cc1ccc(NC(=O)COc2ccc(Br)cn2)cc1
3,> 36.2,O=C(c1cc2ccccc2cc1O)N1CCCC1
4,< 0.7,Cc1ccc2c(=O)cc(C(=O)NCc3ccccc3)oc2c1C
5,> 37.8,O=Nc1c(O)n(Cc2ccccc2)c2ccccc12
6,> 48.5,CCOC(=O)c1nc(Nc2ccc(OC)cc2)c2ccccc2n1
7,56.7,COc1cccc(N2CCN(C(=O)CCNS(=O)(=O)c3ccc(F)c(F)c3)CC2)c1
8,> 41.8,CCn1ccnc1C(O)(c1ccccc1)c1ccccc1
9,> 45.2,COc1ccc(CC(=O)Nc2cc(C)ccc2O)cc1OC
10,34.4,O=c1cc(CO)[nH]cc1OCc1ccccc1
11,1,CN(Cc1ccccc1)C(=O)c1cc2cc(F)ccc2[nH]1
12,> 83.3,CCOc1ccc(Br)cc1S(=O)(=O)Nc1cccc(S(=O)(=O)Nc2ccccc2C(=O)O)c1
13,14,CCCc1ccc2oc(C(=O)N(C)Cc3nccs3)c(C)c2c1
14,< 0.7,CC(C)(C)C1COc2ccccc2N1C(=O)c1ccccc1Cl (centres undefined)
15,2.5,Cc1cccc(-n2cnc3sc(C)c(C)c3c2=O)c1
16,11.7,COCc1cc(SC2CCCCC2)nc(C)n1
17,> 47.6,Cc1cc(C)cc(C(=O)NCC(=O)N2CCC(C(N)=O)CC2)c1
18,5,Cc1ccccc1NCc1nc2ccccc2n1C
19,> 43.1,N#CC1(NC(=O)COc2ccc(C(N)=O)cc2)CCCC1
20,33.7,CCC(=O)c1c[nH]c(C(=O)N2CCOCC2)c1
21,> 40.8,COC(=O)c1cccc(NC(=O)c2ccc[n+]([O-])c2)c1

row,Compound,solubility kinetic [µg/mL]
1,CC1CCN(C(=O)C(C)Cl)CC1 (centres undefined),11.1
2,Nc1ccc(CCN2CCN(c3cccc(C(F)(F)F)c3)CC2)cc1,> 52.4
3,c1ccc(CN2CCN(Cc3ccc4ccccc4c3)CC2)cc1,23.4
4,CC1CCN(C(=O)COC(=O)c2cn(C)c3ccccc23)CC1,> 47.2
5,Cl.O=C(CCN1CCN(CCO)CC1)N1c2ccccc2Sc2ccc(C(F)(F)F)cc21,65.7
6,CCc1ccc(N2C(=O)CC(=O)NC2=O)cc1,> 34.8
